The text below walks through data of publication PMC4574636 (Biochemical pharmacology, 2015).

Series [1] concerns the target T1, aldehyde oxidase (AOX) (Homo sapiens, UniProt Q06278).
T1 sequence (Q06278 1-1338): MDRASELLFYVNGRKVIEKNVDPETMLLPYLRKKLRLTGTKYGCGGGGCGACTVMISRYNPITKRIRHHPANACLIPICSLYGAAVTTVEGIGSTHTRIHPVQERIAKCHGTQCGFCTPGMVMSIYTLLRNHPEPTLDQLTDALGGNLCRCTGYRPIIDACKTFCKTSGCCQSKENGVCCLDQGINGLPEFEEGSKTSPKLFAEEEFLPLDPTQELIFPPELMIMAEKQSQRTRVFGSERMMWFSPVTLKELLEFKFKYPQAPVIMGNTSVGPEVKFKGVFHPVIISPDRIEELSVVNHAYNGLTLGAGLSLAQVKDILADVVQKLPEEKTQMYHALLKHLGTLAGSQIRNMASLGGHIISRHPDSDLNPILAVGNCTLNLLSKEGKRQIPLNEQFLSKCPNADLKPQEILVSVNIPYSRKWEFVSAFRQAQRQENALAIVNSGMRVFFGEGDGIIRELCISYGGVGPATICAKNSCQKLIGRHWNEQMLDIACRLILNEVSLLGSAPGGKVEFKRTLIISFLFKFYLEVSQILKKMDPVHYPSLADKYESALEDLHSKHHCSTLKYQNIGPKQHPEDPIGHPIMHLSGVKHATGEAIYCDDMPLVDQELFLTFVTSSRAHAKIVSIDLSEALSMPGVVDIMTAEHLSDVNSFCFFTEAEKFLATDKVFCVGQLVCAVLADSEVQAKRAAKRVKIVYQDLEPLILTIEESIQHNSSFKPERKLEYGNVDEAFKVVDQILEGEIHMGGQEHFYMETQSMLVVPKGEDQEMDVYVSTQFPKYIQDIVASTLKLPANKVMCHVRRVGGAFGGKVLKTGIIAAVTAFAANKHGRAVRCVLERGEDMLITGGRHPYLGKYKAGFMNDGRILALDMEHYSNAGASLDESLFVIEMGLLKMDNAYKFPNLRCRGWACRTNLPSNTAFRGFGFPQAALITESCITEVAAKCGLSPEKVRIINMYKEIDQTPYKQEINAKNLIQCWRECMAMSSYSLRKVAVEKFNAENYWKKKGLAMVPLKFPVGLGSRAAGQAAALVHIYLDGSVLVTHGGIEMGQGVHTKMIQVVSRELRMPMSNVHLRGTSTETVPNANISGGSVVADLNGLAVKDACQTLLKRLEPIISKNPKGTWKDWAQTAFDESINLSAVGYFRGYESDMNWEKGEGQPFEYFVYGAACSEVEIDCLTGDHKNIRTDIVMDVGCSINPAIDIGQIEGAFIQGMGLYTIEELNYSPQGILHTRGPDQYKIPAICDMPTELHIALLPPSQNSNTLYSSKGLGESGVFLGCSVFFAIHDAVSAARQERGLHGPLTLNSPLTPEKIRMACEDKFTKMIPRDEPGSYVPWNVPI

For series [2], the system named is aldehyde oxidase (AOX).
In series [3] the test system is aldehyde oxidase (AOX). In words: Metabolism kinetics of DACA and phthalazine in rabbit cytosol. The conditions noted are these: for kcat: rabbit cytosol.
The target in series [4] is T1, aldehyde oxidase (AOX). Description: Metabolism kinetics of DACA and phthalazine in human cytosol.
Substrate in series [5]: CN(Cc1cnc2nc(N)nc(N)c2n1)c1ccc(C(=O)N[C@@H](CCC(=O)O)C(=O)O)cc1
Substrate in series [6]: c1ccc2cnncc2c1
Description: cells, lysate or membranes named. The conditions noted are these: other: human cytosol; unit not given.

Like-named read-outs stand apart in the source and are kept apart here.

A word on the Km: it is the substrate concentration at which the rate is half of its maximum. Usually kcat stands for the maximal rate divided by the concentration of active sites. Turning to `CN(C)CCNC(=O)c1cccc2cc3ccccc3nc12` [DACA], the Km on aldehyde oxidase (AOX) [1] came out at 7 µM; with aldehyde oxidase (AOX) [2], 2 µM. For the same molecule, the kcat in the series with aldehyde oxidase (AOX) [3] turned out to be 182 min⁻¹; on aldehyde oxidase (AOX) [4] it was 2.22 s⁻¹.
As to `c1ccc2cnncc2c1` [phthalazine], the Km in the series with aldehyde oxidase (AOX) [3] (New Zealand, rabbit, cytosol) turned out to be 23 µM. Further, the kcat in the series on aldehyde oxidase (AOX) [3] is given as 16,000 min^−1.

B1: AOX1 (Homo sapiens) (protein)
chain: T1 sequence (Q06278 1-1338)
In general, Vmax refers to the rate approached at saturating substrate. As usually defined, the kcat/Km is the turnover number divided by the Michaelis constant. Turning to B1, in series [5], the Km worked out at 2800 µM, the Vmax was in the range of 40 to 70 pmol/min/mg and the kcat/Km worked out at 15 M⁻¹ s⁻¹.

B2: aldehyde oxidase (AOX) (Homo sapiens) (protein)
chain: T1 sequence (Q06278 1-1338)
Take B2: the catalytic constant (kcat) in series [6] is 4.37 s⁻¹.

B3: AOX1 (Macaca mulatta) (protein)
chain: MDRASELLFYVNGRKVIEKNVDPETMLLPYLRKKLRLTGTKYGCGGGGCGACTVMISRYNPITNRIRHHPANACLIPICSLYGTAVTTVEGIGSTHTRIHPVQERIAKCHGTQCGFCTPGMVMSIYTLLRNHPEPTLDQLTDALGGNLCRCTGYRPIIDACKTFCETSGCCQSKENGVCCLDQGINGLPEFEEGSKTSPKLFAEEEFLPLDPTQELIFPPELMIMAEKQPQRTRVFGSERMMWFSPVTLKELLEFKFKYPQAPVIMGNTSVGPQVKFKGVFHPVIISPDRIEELSVVNRTHNGLTLGAGLSLAQVKDILADVVQKLPEEKTQTYHALLKHLGTLAGSQIRNMASLGGHIISRHPDSDLNPILAVGNCTLNLLSKEGKRQIPLNEQFLSKCPNADLKPQEILVSVNIPYSRKLEFVSAFRQAQRQENALAIVNSGMRVFFGEGHGIIRELSISYGGVGPATICAKNSCQKLIGRHWNEEMLDTACRLVLEEVSLSGSAPGGKVEFKRTLIISFLFKFYLEVSQILKKMDPIHYPSLADKYESALEDLHSKHHCSTLKYQHMGPKQHPEDPIGHPIMHLSGVKHATGEAIYCDDMPPVDQELFLTFVTSSRAHAKIVSIDLSEALSMPGVVDVITAEHLSDVNSFCFFTEAEEFLATDKVFCVGQLVCAVLADSEVQAKQAAKQVKIVYQDLEPLILTIKEAIQHNSFFEPERKLEYGNVDEAFKVVDQILEGEIHMGGQEHFYMETQSMLVVPKGEDQEMDVYVSTQFPKYIQDIVASTLKLPANKVMCHVKRVGGAFGGKAFKTGVIAAVTAFAANKHGRAVRCVLERGEDMLITGGRHPYLGKYKAGFMNDGRILALDMEHYSNAGNSLDESLLVIEMGLLKMDNAYKFPNLRCRGWACRTNLPSNTAFRGFGFPQAGLITESCIMEVAAKCGLSPEKVRMINMYKEIDQTPYKQEINAKNLIQCWRECMAVSSYSLRKAAVEKFNAENYWKKKGLAMVPLKYPVGLGSRAAGQAAALVHIYLDGSVLVTHGGIEMGQGVHTKMIQVVSRELGMPISNVHLRGTSTETVPNANVSGGSVVADLNGLAVKDACQILLKRLEPIISKNPKGTWKDWAQTAFDESISLSAVGYFRGYESDINWEKGEGHPFEYFVYGAACSEVEIDCLTGDHKNIRTDIVMDVGCSINPAIDIGQIEGAFIQGMGLYTIEELNYSPQGVLHTRGPDQYKIPAICDTPTEFHISLLPPSENSNTLYSSKGLGESGVFLGCSVFFAIHDAVSAARRERGLHGPLSLNSPLTPEKIRMACEDKFTKMIPRDEPGSCVPWNVPI
Turning to B3, the Km in series [5] came out at 323 ± 123 µM.
